The results in this text go back to EP4631963A1, “PEPTIDE FOR CARTILAGE REGENERATION, AND USES THEREOF” (Caregen Co., Ltd., priority 2022, dated 2024).

Where a SMILES comes first, the peptide text is derived from it. Where no end group is shown, it is not given here.

The test system of this data set is C28/I2, human chondrocyte cell line. Description: CCK-8 cytotoxicity assay. The settings on record: C28/I2 cells, different concentrations, 3 days, 450 nm; FIG. 1, FIG. 2. The class given is cell-based. How it is done: The cytotoxicity of Peptide-1 or Peptide-2 upon addition to human-derived chondrocytes (C28/I2, human chondrocyte cell line) was analyzed using a CCK-8 assay.
Specifically, human-derived chondrocytes were seeded in a 96-well plate at a density of 3 × 10^3 cells/well and cultured in DMEM medium (cat. 11995-065, Gibco) for 24 hours.

With `CC(C)C[C@H](NC(=O)[C@@H](NC(=O)[C@@H](N)CCCNC(=N)N)[C@@H](C)O)C(=O)N[C@@H](CCC(=O)O)C(=O)O` [Peptide-2, RTLE] (H-RTLE-OH), the “toxicity in human-derived chondrocytes (CCK-8 activity)” value is on record as “did not exhibit toxicity”. As to HHEERY [Peptide-1, HHEERY], the “toxicity in human-derived chondrocytes (CCK-8 activity)” value was “did not exhibit toxicity”.
